Measurements published in patent US8785396B2, “Method and composition for treating migraines” (Mannkind Corporation, priority 2007, dated 2014).
One block for each compound: values may come before it.

Tests used:
[1] = Sumatriptan pharmacokinetics in female Sprague Dawley rats; settings: rat, in vivo, 0.358 mg
ZDF rats = experiment: Intraperitoneal glucose tolerance test (IPGTT) in ZDF rats (exendin-4); format: in vivo, rat; settings: subcutaneous injection
From the text: After an overnight fast, ZDF rats were given a glucose challenge by intraperitoneal injection (IPGTT).

[2] = test system: healthy adult male subjects; experiment: Phase 1a clinical trial: insulin, glucose and glucagon response after inhaled GLP-1; format: in vivo, human
Procedure: GLP-1/FDKP inhalation powder was administered using the MedTone® Inhaler device, previously tested. The experiments were designed to identify the safety and tolerability of various doses of GLP-1/FDKP inhalation powder by pulmonary inhalation.
Dropouts were not replaced. These dosages assumed a body mass of 70 kg.

[3] = test system: patients diagnosed with type 2 diabetes; experiment: Meal challenge study in type 2 diabetes patients: GLP-1 levels, insulin, glucose, gastric emptying; format: in vivo, human
Procedure: Experimental Design: The study was divided into two periods and enrolled 20 patients diagnosed with type 2 diabetes ranging in age from 20 to 64 years of age. […] Period 2 was performed after completion of Period 1. […] The results of this study are depicted in FIGS. 18-20.

[4] = test system: patients with Type 2 diabetes; experiment: Phase 1 clinical trial of GLP-1/FDKP inhalation powder in fasted Type 2 diabetes patients: serum glucose; format: in vivo, human; settings: 1.5 mg GLP-1 inhaled; attained by the 30 min time point
Procedure: […]. These studies were conducted according to Example 1 and as described herein. […]. No. 11/735,957, which disclosure is incorporated herein by reference. […].
[…]. The serum glucose levels were analyzed for each sample.

Male ZDF rats = experiment: Cumulative food consumption in male ZDF rats (oxyntomodulin); format: in vivo, rat; settings: 30% oxyntomodulin/FDKP powder by pulmonary insufflation, fasted ZDF rats
Female ZDF rats [5] = experiment: Blood glucose in female ZDF rats (PYY); format: in vivo, rat; settings: Group 1: PYY IV
Female ZDF rats [6] = experiment: Food consumption in female ZDF rats (PYY); format: in vivo, rat; settings: Group 1: 0.6 mg IV

bioavailability ([1]; iv): 100% | bioavailability ([1]; sc): 36.4%
Compound: CNS(=O)(=O)Cc1ccc2[nH]cc(CCN(C)C)c2c1 [Sumatriptan, sumatriptan]

Compound: exenatide
time blood glucose was significantly lowered following IPGTT versus air control (ZDF rats): 30 min

Compound: glucagon-like peptide 1 [GLP-1]
decrease in plasma glucose in two of the six subjects ([2]; 1.5 mg GLP-1 inhaled): more than 1.5 mol/L | mean fasting plasma glucose 20 min after dosing ([2]; 1.5 mg GLP-1 inhaled, reduced from 85): 70 mg/dL | largest decrease in plasma glucagon ([2]; 1.5 mg dose group): approximately 2.5 pmol/L | time of maximum change in plasma glucagon ([2]; after dosing, inhaled GLP-1): 12 min | peak plasma insulin levels in one subject ([2]; inhaled GLP-1): exceeded 700 pmol/L | peak plasma insulin response in most subjects ([2]; inhaled GLP-1, dose groups 0.05-1.5 mg): 200 to 400 pmol/L | insulin response ([3]; GLP-1 dry powder comprising FDKP, fed and fasted groups): more significant | blood glucose after meal challenge ([3]; GLP-1 dry powder formulation): delayed rise in blood glucose and reduced overall exposure (AUC) to glucose | mean glucose drop [4]: approximately 1 mmol/L

Compound: oxyntomodulin
time after dosing with significantly less food consumed than control rats (Male ZDF rats): up to 6 hr

Compound: peptide YY(3-36) [PYY]
time after dosing up to which blood glucose level was lower than in the other rats (Female ZDF rats [5]): about 15 min | food consumption (Female ZDF rats [6]): relatively effective in reducing food consumption
